Each structure is given as a SMILES string. pIC50: −log10 of the molar value.

Assay [1] deals with T1, POSH (Homo sapiens, UniProt Q7Z6J0).
T1 construct: GST-POSH lot NB81/p.118 3.6 mg/ml; fused on or other part: GST tag, used for detection with anti-GST XL665
T1 sequence (Q7Z6J0 1-269 limits assumed): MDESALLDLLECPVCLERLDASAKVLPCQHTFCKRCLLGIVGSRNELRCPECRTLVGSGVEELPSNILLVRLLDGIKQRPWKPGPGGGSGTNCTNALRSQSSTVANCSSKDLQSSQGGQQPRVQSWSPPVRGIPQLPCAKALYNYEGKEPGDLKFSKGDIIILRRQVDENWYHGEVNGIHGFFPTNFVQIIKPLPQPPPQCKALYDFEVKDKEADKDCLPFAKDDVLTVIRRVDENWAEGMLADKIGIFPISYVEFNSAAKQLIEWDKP
As to the kind of experiment: IC50 assay procedure: GST-POSH auto-ubiquitination, homogeneous time-resolved fluorescence (Ub-cryptate / anti-GST XL665). Conditions: ubiquitin ligase activity of POSH; GST-POSH 33 nM, 30 min preincubation. It is filed as biochemical. The essentials:
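GST-POSH (33 nM) preincubated 30 min at RT with compounds (DMSO dilution series), then added to E1/E2/Eu-cryptate-ubiquitin enzyme mix for 30 min at 37 °C. Stopped with EDTA, anti-GST XL665 added 45 min at RT; HTRF signal of POSH auto-ubiquitination read, triplicates, IC50 from concentration series.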

In assay [2] the test system is HIV-1. As to the kind of experiment: HIV maturation (budding) in virus-like particle assay, HIV-1 p24 antigen ELISA. The assay is classed as cell-based. Conditions: Human immunodeficiency virus 1, read-out: Budding (3 μM). The text has this: Compounds were further assessed for effects on maturation of HIV particles in a virus-like particle assay.

Usually pIC50 stands for the negative decadic logarithm of the IC50, by convention in mol/L. A lower pIC50 goes with a large IC50. With `CC(C)(C)c1ccc(O)c(/N=C/C=C/c2cccc([N+](=O)[O-])c2)c1` [Compound 59], the pIC50 in assay [1] is 6.30. For the same molecule, in assay [2], the activity at 3 µM is 61%.
In assay [1], `C=CCN1C(=O)NC(=O)/C(=C\c2ccccc2)C1=O` [Compound 2] gave a pIC50 of 6.15. Moreover, in assay [2], the activity at 3 µM was 66%.
In assay [1], `COc1ccc(/C=N/c2ccc(Nc3ccccc3)cc2)c2ccccc12` [Compound 55] showed a negative logarithm of the IC50 (pIC50) of 6.30. Moreover, the activity at 3 µM in assay [2] worked out at 55%.
`C=CCN1C(=O)/C(=C/c2c3ccccc3cc3ccccc23)SC1=S` [Compound 109]: the pIC50 in assay [1] was 6.30. Also, the activity at 3 µM in assay [2] was found to be 60%.
For `CCCCCCOc1ccc(C=C2C(=O)NC(=S)NC2=O)cc1` [Compound 15], the negative-log IC50 (pIC50) in assay [1] is 6.30. In assay [2], the activity at 3 µM amounted to 52%.
The molecule `COc1ccc(N2C(=O)NC(=O)/C(=C\C=C\c3ccccc3)C2=O)cc1` [Compound 8] showed a pIC50 in assay [1] of 6.30. Moreover, the activity at 3 µM in assay [2] amounted to 67%.
As to `COc1ccc(NC(=O)c2cc3cccc(N)c3cc2O)cc1` [Compound 114], the pIC50 in assay [1] was 6.52. In assay [2], the activity at 3 µM turned out to be 46%.
As for `Cc1cc([N+](=O)[O-])ccc1/N=C/c1ccc[nH]1` [Compound 70], the pIC50 in assay [1] was 6.22. The activity at 3 µM in assay [2] was 57%.
In turn, `O=C1C(=Cc2ccc(-c3ccc(Br)cc3)o2)C(=O)c2ccccc21` [Compound 38] gave a pIC50 in assay [1] of 6.40. Further, in assay [2], the activity at 3 µM amounted to 38%.
`O=C1C=CC(=O)N1c1ccccc1Cl` [Compound 18] gave a pIC50 in assay [1] of 6.15. Further, the activity at 3 µM in assay [2] amounted to 41%.
Regarding `O=C1NC(=O)C(=Cc2ccc(-c3cc(Cl)ccc3Cl)o2)C(=O)N1` [Compound 1], in assay [1], the negative-log IC50 (pIC50) was 6.70. In addition, in assay [2], the activity at 3 µM was determined as 46%.
For `O=C(O)c1ccc(-c2ccc(/C=c3\sc4nc5ccccc5n4c3=O)o2)cc1` [Compound 28], the pIC50 in assay [1] is 6.15. The activity at 3 µM in assay [2] is 54%.
